In US20110098323A1, “INHIBITORS OF BACTERIAL BIOFILM FORMATION” (MICROBIOTIX, INC., priority 2009, published 2011):
Like-named read-outs stand apart in the source and are kept apart here.

Tests used:
Test in all cases: MBIC/MIC secondary assay
Type in all cases: cell-based
[1] = tested on: vancomycin-resistant Enterococcus faecalis strain (ATCC 51299); conditions: for MIC: Enterococcus faecalis, ATCC51299
Protocol: (§1) Assays for detecting and measuring bacterial biofilm formation are known in the art. An example of a biofilm formation assay useful in detecting and characterizing biofilm inhibitor compounds is described in Example 1, infra. Briefly, bacterial cells are inoculated into growth medium in individual wells of a 96-well assay plate in the presence or absence of a compound (known biofilm inhibitor or test compound). After incubation for a specified time, growth medium and non-biofilm bacterial cells are removed from each of the wells. The bacterial cells in any biofilms that are adhered to the surface of a well are fixed by addition of ethanol. The ethanol is removed, and the fixed biofilm bacteria cells are stained with crystal violet (CV). The intensity of CV staining is directly correlated with bacterial biofilm formation and is measured in the wells by reading the optical density at 600 nm (OD600). The difference in biofilm formation between untreated control and treated cultures provides an indication of relative biofilm inhibition activity (anti-biofilm activity). Use of different concentrations of an inhibitor in multiple and otherwise duplicate cultures permits determination of a compound's Minimal Biofilm Inhibitory Concentration (MBIC), which is defined herein as the lowest concentration of a compound that inhibits biofilm formation by at least 80% (i.e., ≧80%) compared to untreated control cultures. […]
(§2) A secondary assay provided a quantitative measure of both anti-biofilm activity and antibacterial activity in terms of the Minimal Biofilm Inhibitory Concentration (MBIC) and the Minimal Inhibitory Concentration (MIC), respectively. The MBIC and MIC are defined as the lowest compound concentrations that inhibit biofilm formation and bacterial growth, respectively, by at least 80% (i.e., ≧80%). The MBIC/MIC assay is formatted in a manner that is similar to the Microbroth dilution assays described by the Clinical and Laboratory Standards Institute (CLSI; formerly NCCLS) in protocol M7-A7. The growth conditions were optimized for biofilm growth in 96-well assay plates such that the resulting CV staining was within the linear range of detection. Therefore, the MBIC/MIC assay provided a stringent measure of anti-biofilm activity.
(§3) The assay was adapted for several biofilm-forming strains of S. epidermidis, S. aureus, Enterococcus faecalis, and Pseudomonas aeruginosa. Briefly, 96-well assay plates contained a two-fold dilution series for up to 8 compounds (one compound/row) and untreated controls (concentration range of 0.2 μM-100 μM). The assay plates were inoculated with the test bacterial species, e.g., S. epidermidis 18972 (0.5×TSB, 0.25% glucose) or S. aureus ATCC 35556 (0.5×TSB, 1% glucose). The inocula were prepared by diluting an overnight culture 1:100 in fresh media, which corresponds to approximately 5×10^6 cells/well. After inoculation, the assay plates were sealed with foil tape and incubated for 18 h-20 h at 37° C. The assay plates were processed, and the percent inhibition of growth (% INH-Growth) and percent inhibition of biofilm formation (% INH-Biofilm) were calculated as described above. […] Compounds with an MBIC≦10 μM and an MIC/MBIC ratio≧8 for either S. epidermidis or S. aureus were designated as validated hits.
(§4) Compounds were also tested for anti-biofilm activity against a strain of biofilm-forming, vancomycin-resistant Enterococcus faecalis strain (ATCC 51299), the Gram-negative biofilm-forming opportunistic pathogen Pseudomonas aeruginosa PAO1 ([…]), and a Gram-negative, biofilm-forming strain of Escherichia coli (ATCC 25922).

[2] = tested on: Pseudomonas aeruginosa PAO1; conditions: for MIC: Pseudomonas aeruginosa, PAO1
Protocol: as §1, §2, §3, §4

[3] = tested on: Escherichia coli (ATCC 25922); conditions: for MIC: Escherichia coli, ATCC25922
Protocol: as §1, §2, §3, §4

In the case of CCOc1cc(/C=C2\SC(=S)N(c3cccc(F)c3)C2=O)ccc1O [Compound 8, 3-(3-fluorophenyl)-5-(3-ethoxy-4-hydroxybenzylidene)-2-thioxothiazolidin-4-one], the MBIC ([1]; E. faecalis strain 51299) is reported as 25 µM, the MIC [1] is reported as no less than 100 µM and the MBIC ([2]; P. aeruginosa strain PA01) is reported as “≧100 μM”. The MIC [2] was no less than 100 µM, the MBIC ([3]; E. coli strain 25922) was “≧100 μM” and the MIC [3] was no less than 100 µM.
For CCOc1cc(/C=C2\SC(=S)N(c3cccnc3)C2=O)ccc1O [Compound 36, 3-(pyridin-3-yl)-5-(3-ethoxy-4-hydroxybenzylidene)-2-thioxothiazolidin-4-one], the MBIC ([1]; E. faecalis strain 51299) was 12.5 µM, the MIC [1] was no less than 100 µM and the MBIC ([2]; P. aeruginosa strain PA01) was “≧100 μM”. For the same molecule, the MIC [2] was no less than 100 µM, the MBIC ([3]; E. coli strain 25922) was “≧100 μM” and the MIC [3] was no less than 100 µM.
CCOc1cc(/C=C2\SC(=S)N(c3ccc(F)cc3)C2=O)ccc1O [Compound 4, 3-(4-fluorophenyl)-5-(3-ethoxy-4-hydroxybenzylidene)-2-thioxothiazolidin-4-one] was tested, and the MBIC ([1]; E. faecalis strain 51299) was 12.5 µM, the MIC [1] was no less than 100 µM and the MBIC ([2]; P. aeruginosa strain PA01) was “≧100 μM”. For the same molecule, the MIC [2] was no less than 100 µM, the MBIC ([3]; E. coli strain 25922) was “≧100 μM” and the MIC [3] was no less than 100 µM.
For CCOc1cc(/C=C2\SC(=S)N(c3ccc(F)nc3)C2=O)ccc1O [Compound 40, 3-(6-fluoropyridin-3-yl)-5-(3-ethoxy-4-hydroxybenzylidene)-2-thioxothiazolidin-4-one], the MBIC ([1]; E. faecalis strain 51299) was 6.3 µM, the MIC [1] was no less than 100 µM and the MBIC ([2]; P. aeruginosa strain PA01) was “≧100 μM”. The MIC [2] was no less than 100 µM, the MBIC ([3]; E. coli strain 25922) was “≧100 μM” and the MIC [3] was no less than 100 µM.
In the case of C=CCOc1cc(/C=C2\SC(=S)N(c3ccc(F)cc3)C2=O)ccc1O [Compound 29, 3-(4-fluorophenyl)-5-(3-allyloxy-4-hydroxybenzylidene)-2-thioxothiazolidin-4-one], the MBIC ([1]; E. faecalis strain 51299) is reported as 12.5 µM, the MIC ([1]; E. faecalis strain 51299, read-out: MIC) is reported as no less than 100 µM and the MBIC ([2]; P. aeruginosa strain PA01) is reported as “≧100 μM”. The MIC ([2]; P. aeruginosa strain PA01, read-out: MIC) was no less than 100 µM, the MBIC ([3]; E. coli strain 25922) was “≧100 μM” and the MIC ([3]; E. coli strain 25922, read-out: MIC) was no less than 100 µM.
For CCOc1cc(/C=C2\SC(=S)N(c3cccc(C#N)c3)C2=O)ccc1O [Compound 34, 3-(3-cyanophenyl)-5-(3-ethoxy-4-hydroxybenzylidene)-2-thioxothiazolidin-4-one], the MBIC ([1]; E. faecalis strain 51299) was 12.5 µM, the MIC [1] was no less than 100 µM and the MBIC ([2]; P. aeruginosa strain PA01) was “≧100 μM”. For the same molecule, the MIC [2] was no less than 100 µM, the MBIC ([3]; E. coli strain 25922) was “≧100 μM” and the MIC [3] was no less than 100 µM.
